Experimental data reported in patent US6638973B2, “Taxane formulations” (FSU Research Foundation, Inc., priority 2000, dated 2003).
Where two headings read alike, the source gives them in different places.

Tested on: HCT116 cells
Test: In vitro cytotoxicity measured by the cell colony formation assay
Assay type: cell-based
Conditions: colonies counted after 7 days, read-out: IN VITRO ID 50 (nm) HCT116
Summary of the method: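 Colony-forming survival was scored 7 days after a 72 h, 37 °C compound exposure followed by washout into fresh medium.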

[1] = HCT116 colony formation, 72 h drug incubation, Example 10, C-10 ester/C-7 hydroxy taxanes
[2] = HCT116 cells, 72 h incubation with drug, ID50 = drug concentration producing 50% inhibition of colony formation
[3] = HCT116 colony formation, 72 h drug incubation, Example 5, C-7 ester/C-10 hydroxy taxanes

Structure (SMILES): CCCC(=O)OC1C(=O)C2(C)C(O)CC3OCC3(OC(C)=O)C2C(OC(=O)c2ccccc2)C2(O)CC(OC(=O)C(O)C(NC(=O)OC(C)(C)C)C3CCC3)C(C)=C1C2(C)C (stereo not drawn) [Compound 1044]
- IC50 [1]: < 1 nM

Structure (SMILES): CCOC(=O)O[C@H]1C(=O)[C@@]2(C)C([C@H](OC(=O)c3ccccc3)[C@]3(O)C[C@H](OC(=O)[C@H](O)[C@@H](NC(=O)OCC(C)C)c4ccsc4)C(C)=C1C3(C)C)[C@]1(OC(C)=O)CO[C@@H]1C[C@@H]2O (stereo partly drawn) [Compound 4924]
- IC50 [2]: < 10 nM

Structure (SMILES): CCC(=O)O[C@H]1C(=O)[C@@]2(C)C([C@H](OC(=O)c3ccccc3)[C@]3(O)C[C@H](OC(=O)[C@H](O)[C@@H](NC(=O)c4ccccc4)C(C)C)C(C)=C1C3(C)C)[C@]1(OC(C)=O)CO[C@@H]1C[C@@H]2O (stereo partly drawn) [Compound 0719]
- IC50 [1]: < 10 nM

Structure (SMILES): C/C=C/C(=O)N[C@@H](c1ccco1)[C@@H](O)C(=O)O[C@H]1C[C@@]2(O)[C@@H](OC(=O)c3ccccc3)C3[C@](C)(C(=O)[C@H](O)C(=C1C)C2(C)C)[C@@H](OC(=O)NC1CCCCC1)C[C@H]1OC[C@@]31OC(C)=O (stereo partly drawn) [Compound 5895]
- IC50 (HCT116 cells, 72 h drug incubation, ID50 = drug concentration producing 50% inhibition of colony formation): < 1 nM

Structure (SMILES): CCCC(=O)O[C@H]1C[C@H]2OC[C@@]2(OC(C)=O)C2[C@H](OC(=O)c3ccccc3)[C@]3(O)C[C@H](OC(=O)[C@H](O)[C@@H](NC(=O)c4ccccc4)c4cccs4)C(C)=C([C@@H](O)C(=O)[C@@]21C)C3(C)C (stereo partly drawn) [Compound 4414]
- IC50 [3]: < 1 nM

Structure (SMILES): CCNC(=O)O[C@H]1C(=O)[C@@]2(C)C([C@H](OC(=O)c3ccccc3)[C@]3(O)C[C@H](OC(=O)[C@H](O)[C@@H](NC(=O)OC(C)(C)C)c4ccco4)C(C)=C1C3(C)C)[C@]1(OC(C)=O)CO[C@@H]1C[C@@H]2O (stereo partly drawn) [Compound 2700]
- IC50 (HCT116 cells, colony formation, 72 h incubation with drug, ID50 = drug concentration producing 50% inhibition of colony formation): < 1 nM

Structure (SMILES): CC(=O)O[C@@]12CO[C@@H]1C[C@H](O)[C@@]1(C)C(=O)[C@H](OC(=O)C(C)C)C3=C(C)[C@@H](OC(=O)[C@H](O)[C@@H](NC(=O)OC(C)(C)C)c4cccnc4)C[C@@](O)([C@@H](OC(=O)c4ccccc4)C12)C3(C)C (stereo partly drawn) [Compound 2242]
- IC50 [1]: < 10 nM

Structure (SMILES): CC(=O)OC12COC1CC(O)C1(C)C(=O)C(OC(=O)c3cccs3)C3=C(C)C(OC(=O)C(O)C(NC(=O)OC(C)(C)C)c4ccoc4)CC(O)(C(OC(=O)c4ccccc4)C21)C3(C)C (stereo not drawn) [Compound 1923]
- IC50 [1]: < 1 nM

Structure (SMILES): COC(=O)O[C@H]1C(=O)[C@@]2(C)C([C@H](OC(=O)c3ccccc3)[C@]3(O)C[C@H](OC(=O)[C@H](O)[C@@H](NC(=O)OC(C)(C)C)C4CCC4)C(C)=C1C3(C)C)[C@]1(OC(C)=O)CO[C@@H]1C[C@@H]2O (stereo partly drawn) [Compound 2077]
- IC50 [2]: < 10 nM

Structure (SMILES): CC(=O)O[C@@]12CO[C@@H]1C[C@H](O)[C@@]1(C)C(=O)[C@H](OC(=O)C3CC3)C3=C(C)[C@@H](OC(=O)[C@H](O)[C@@H](NC(=O)OCC(C)C)c4cccs4)C[C@@](O)([C@@H](OC(=O)c4ccccc4)C12)C3(C)C (stereo partly drawn) [Compound 3129]
- IC50 [1]: < 10 nM

Structure (SMILES): CCC(=O)O[C@H]1C[C@H]2OC[C@@]2(OC(C)=O)C2[C@H](OC(=O)c3ccccc3)[C@]3(O)C[C@H](OC(=O)[C@H](O)[C@H](C=C(C)C)NC(=O)OCC(C)C)C(C)=C([C@@H](O)C(=O)[C@@]21C)C3(C)C (stereo partly drawn) [Compound 5121]
- IC50 [3]: 21.1 nM

Structure (SMILES): CCCC(=O)O[C@H]1C[C@H]2OC[C@@]2(OC(C)=O)C2[C@H](OC(=O)c3ccccc3)[C@]3(O)C[C@H](OC(=O)[C@H](O)[C@@H](NC(=O)OC=C(C)C)c4ccco4)C(C)=C([C@@H](O)C(=O)[C@@]21C)C3(C)C (stereo partly drawn) [Compound 6181]
- IC50 [3]: < 1 nM

Structure (SMILES): CC(=O)O[C@H]1C[C@H]2OC[C@@]2(OC(C)=O)C2[C@H](OC(=O)c3ccccc3)[C@]3(O)C[C@H](OC(=O)[C@H](O)[C@@H](NC(=O)OC(C)(C)C)C4CC4)C(C)=C([C@@H](O)C(=O)[C@@]21C)C3(C)C (stereo partly drawn) [Compound 4555]
- IC50 [2]: < 1 nM

Structure (SMILES): CCOC(=O)N[C@@H](c1ccco1)[C@@H](O)C(=O)O[C@H]1C[C@@]2(O)[C@@H](OC(=O)c3ccccc3)C3[C@](C)(C(=O)[C@H](OC(=O)OCC)C(=C1C)C2(C)C)[C@@H](O)C[C@H]1OC[C@@]31OC(C)=O (stereo partly drawn) [Compound 4020]
- IC50 [2]: < 1 nM

Structure (SMILES): CCOC(=O)O[C@H]1C(=O)[C@@]2(C)C([C@H](OC(=O)c3ccccc3)[C@]3(O)C[C@H](OC(=O)[C@H](O)[C@@H](NC(=O)c4cccnc4)c4cccs4)C(C)=C1C3(C)C)[C@]1(OC(C)=O)CO[C@@H]1C[C@@H]2O (stereo partly drawn) [Compound 3300]
- IC50 [2]: < 10 nM

Structure (SMILES): CCC(=O)O[C@H]1C(=O)[C@@]2(C)C([C@H](OC(=O)c3ccccc3)[C@]3(O)C[C@H](OC(=O)[C@H](O)[C@@H](NC(=O)OC(C)(C)C)c4ccoc4)C(C)=C1C3(C)C)[C@]1(OC(C)=O)CO[C@@H]1C[C@@H]2O (stereo partly drawn) [Compound 5495]
- IC50 [1]: < 1 nM

Structure (SMILES): CCC(=O)O[C@H]1C[C@H]2OC[C@@]2(OC(C)=O)C2[C@H](OC(=O)c3ccccc3)[C@]3(O)C[C@H](OC(=O)[C@H](O)[C@@H](NC(=O)OC(C)(C)CC)c4ccco4)C(C)=C([C@@H](O)C(=O)[C@@]21C)C3(C)C (stereo partly drawn) [Compound 6424]
- IC50 [3]: 21.7 nM

Structure (SMILES): CC(=O)OCC(=O)O[C@H]1C[C@H]2OC[C@@]2(OC(C)=O)C2[C@H](OC(=O)c3ccccc3)[C@]3(O)C[C@H](OC(=O)[C@H](O)[C@@H](NC(=O)C=C(C)C)c4ccco4)C(C)=C([C@@H](O)C(=O)[C@@]21C)C3(C)C (stereo partly drawn) [Compound 5544]
- IC50 (HCT116 colony formation, 72 h drug incubation, Example 15, C-7 substituted acetate/C-10 hydroxy taxanes): < 1 nM

Structure (SMILES): CCCC(=O)O[C@H]1C(=O)[C@@]2(C)C([C@H](OC(=O)c3ccccc3)[C@]3(O)C[C@H](OC(=O)[C@H](O)[C@@H](NC(=O)OCC(C)C)c4ccco4)C(C)=C1C3(C)C)[C@]1(OC(C)=O)CO[C@@H]1C[C@@H]2O (stereo partly drawn) [Compound 3957]
- IC50 [1]: < 10 nM

Structure (SMILES): CCCC(=O)N[C@@H](c1ccco1)[C@@H](O)C(=O)O[C@H]1C[C@@]2(O)[C@@H](OC(=O)c3ccccc3)C3[C@](C)(C(=O)[C@H](OC(=O)C4CC4)C(=C1C)C2(C)C)[C@@H](O)C[C@H]1OC[C@@]31OC(C)=O (stereo partly drawn) [Compound 4062]
- IC50 [1]: < 1 nM

Structure (SMILES): CC(=O)O[C@@]12CO[C@@H]1C[C@H](O)[C@@]1(C)C(=O)[C@H](OC(=O)C3CC3)C3=C(C)[C@@H](OC(=O)[C@H](O)[C@@H](NC(=O)c4cccnc4)c4cccs4)C[C@@](O)([C@@H](OC(=O)c4ccccc4)C12)C3(C)C (stereo partly drawn) [Compound 4112]
- IC50 [1]: < 10 nM

Structure (SMILES): COC(=O)O[C@H]1C(=O)[C@@]2(C)C([C@H](OC(=O)c3ccccc3)[C@]3(O)C[C@H](OC(=O)[C@H](O)[C@@H](NC(=O)OC(C)(C)C)c4ccsc4)C(C)=C1C3(C)C)[C@]1(OC(C)=O)CO[C@@H]1C[C@@H]2O (stereo partly drawn) [Compound 2050]
- IC50 [2]: < 1 nM

Structure (SMILES): CCOC(=O)O[C@H]1C(=O)[C@@]2(C)C([C@H](OC(=O)c3ccccc3)[C@]3(O)C[C@H](OC(=O)[C@H](O)[C@@H](NC(=O)OC(C)(C)C)c4ccsc4)C(C)=C1C3(C)C)[C@]1(OC(C)=O)CO[C@@H]1C[C@@H]2O (stereo partly drawn) [Compound 1841]
- IC50 [2]: < 1 nM

Structure (SMILES): CCC(=O)O[C@H]1C(=O)[C@@]2(C)C([C@H](OC(=O)c3ccccc3)[C@]3(O)C[C@H](OC(=O)[C@H](O)[C@@H](NC(=O)c4ccco4)c4ccco4)C(C)=C1C3(C)C)[C@]1(OC(C)=O)CO[C@@H]1C[C@@H]2O (stereo partly drawn) [Compound 3818]
- IC50 [1]: < 1 nM

Structure (SMILES): CC(=O)O[C@@]12CO[C@@H]1C[C@H](OC(=O)C=C(C)C)[C@@]1(C)C(=O)[C@H](O)C3=C(C)[C@@H](OC(=O)[C@H](O)[C@@H](NC(=O)OCC(C)C)c4ccco4)C[C@@](O)([C@@H](OC(=O)c4ccccc4)C12)C3(C)C (stereo partly drawn) [Compound 6040]
- IC50 [3]: < 10 nM

Structure (SMILES): CC(=O)O[C@@]12CO[C@@H]1C[C@H](O)[C@@]1(C)C(=O)[C@H](OC(=O)C(C)C)C3=C(C)[C@@H](OC(=O)[C@H](O)[C@@H](NC(=O)OC(C)(C)C)c4ccc([N+](=O)[O-])cc4)C[C@@](O)([C@@H](OC(=O)c4ccccc4)C12)C3(C)C (stereo partly drawn) [Compound 2320]
- IC50 [1]: < 1 nM

Structure (SMILES): C/C=C/C(=O)N[C@@H](c1ccco1)[C@@H](O)C(=O)O[C@H]1C[C@@]2(O)[C@@H](OC(=O)c3ccccc3)C3[C@](C)(C(=O)[C@H](O)C(=C1C)C2(C)C)[C@@H](OC(=O)CCC)C[C@H]1OC[C@@]31OC(C)=O (stereo partly drawn) [Compound 4737]
- IC50 [3]: < 1 nM

Structure (SMILES): CCCC(=O)O[C@H]1C(=O)[C@@]2(C)C([C@H](OC(=O)c3ccccc3)[C@]3(O)C[C@H](OC(=O)[C@H](O)[C@@H](NC(=O)OC(C)(C)C)c4cccnc4)C(C)=C1C3(C)C)[C@]1(OC(C)=O)CO[C@@H]1C[C@@H]2O (stereo partly drawn) [Compound 0966]
- IC50 [1]: < 10 nM

Structure (SMILES): CC(=O)OC12COC1CC(O)C1(C)C(=O)C(OC(=O)C(C)C)C3=C(C)C(OC(=O)C(O)C(C=C(C)C)NC(=O)OC(C)(C)C)CC(O)(C(OC(=O)c4ccccc4)C21)C3(C)C (stereo not drawn) [Compound 2226]
- IC50 [1]: < 1 nM

Structure (SMILES): CC(=O)OC12COC1CC(O)C1(C)C(=O)C(OC(=O)c3cccs3)C3=C(C)C(OC(=O)C(O)C(NC(=O)OC(C)(C)C)C(C)C)CC(O)(C(OC(=O)c4ccccc4)C21)C3(C)C (stereo not drawn) [Compound 1964]
- IC50 [1]: < 10 nM

Structure (SMILES): CCCC(=O)O[C@H]1C[C@H]2OC[C@@]2(OC(C)=O)C2[C@H](OC(=O)c3ccccc3)[C@]3(O)C[C@H](OC(=O)[C@H](O)[C@H](C=C(C)C)NC(=O)OCC(C)C)C(C)=C([C@@H](O)C(=O)[C@@]21C)C3(C)C (stereo partly drawn) [Compound 5131]
- IC50 [3]: < 10 nM

Structure (SMILES): C/C=C/C(=O)N[C@@H](c1ccco1)[C@@H](O)C(=O)O[C@H]1C[C@@]2(O)[C@@H](OC(=O)c3ccccc3)C3[C@](C)(C(=O)[C@H](O)C(=C1C)C2(C)C)[C@@H](OC(=O)OC)C[C@H]1OC[C@@]31OC(C)=O (stereo partly drawn) [Compound 4744]
- IC50 [2]: < 1 nM

Structure (SMILES): CCOC(=O)O[C@H]1C[C@H]2OC[C@@]2(OC(C)=O)C2[C@H](OC(=O)c3ccccc3)[C@]3(O)C[C@H](OC(=O)[C@H](O)[C@@H](NC(=O)C=C(C)C)c4ccco4)C(C)=C([C@@H](O)C(=O)[C@@]21C)C3(C)C (stereo partly drawn) [Compound 6151]
- IC50 [2]: < 1 nM
